Consider 3 compounds from paper PMC7214178, “Ligand‐specific recycling profiles determine distinct potential for chronic analgesic tolerance of delta‐opioid receptor (DOPr) agonists” (Journal of Cellular and Molecular Medicine, 2020).

Data set [1] relates to rat model of streptozotocin (STZ)‐induced diabetic neuropathy. Nature of the data set: Acute anti‐allodynic dose‐response after single i.t. injection (von Frey). The conditions noted are these: for Analgesia 60 min after injection vs vehicle: i.t. doses that reached maximal effect, one‐way ANOVA vs control, n = 3‐4; for Area under the curves, pEC50 ± SEM (M) / Peak analgesic response, pEC50 ± SEM (M): i.t. in 30 μL; for Area under the curves, pEC50 ± SEM (M) / Area under the curves, Relative EMAX ± SEM: analgesic response integrated over time (AUC); for Area under the curves, pEC50 ± SEM (M) / Peak analgesic response, pEC50 ± SEM (M) / Peak analgesic response, Relative EMAX ± SEM: four‐parameter logistic fit; for Area under the curves, pEC50 ± SEM (M) / Peak analgesic response, pEC50 ± SEM (M) / Area under the curves, Relative EMAX ± SEM / Peak analgesic response, Relative EMAX ± SEM: 3‐4 rats/dose; for Peak analgesic response, pEC50 ± SEM (M) / Peak analgesic response, Relative EMAX ± SEM: mechanical withdrawal threshold 30 min after injection; for Area under the curves, Relative EMAX ± SEM / Peak analgesic response, Relative EMAX ± SEM: normalized to maximal asymptote of agonist with largest effect. The format is in vivo. The text has this: Adult male Sprague Dawley (SD) rats, weighing 235‐250 g, were purchased from Charles River laboratories and housed in a controlled environment on a 12‐hour light/dark cycle with free access to food and water. All experimental methods and animal care procedures were approved by the Animal Care Committee of University of Montreal (CDEA protocol 15‐013), in accordance with the guiding principles as enunciated by the Canadian Council on Animal Care.
(§1) Type I diabetes was induced by systemic injection of streptozotocin (STZ, 65 mg/kg, i.p.) according to a standardized methodology, which allows development of persistent diabetic neuropathy after the first week of treatment. ^20 At the end of the first week, blood was extracted from the tail vein and blood glucose levels were measured with a glucometer (Accu‐Chek Aviva; Roche Diagnostics) prior to evaluation of analgesia on the second week.
(§2) Mechanical allodynia is the consequence of maladaptive neuroplasticity following nerve damage. ^24 In a model of diabetic neuropathy as the one used in this study, hyperglycaemia contributes to generate reactive oxygen species which induce microglia activation and inflammatory mediators. ^25 , ^26 These mediators attenuate the activity of Gly/GABA interneurons in superficial layers ^24 , ^27 , ^28 , ^29 and disrupt the inhibitory control that prevents innocuous touch stimuli from producing pain which leads to allodynia. ^30 DOPrs are expressed in these light‐touch mechanoreceptors ^31 and up‐regulated during sensitization, ^32 , ^33 making DOPr agonists elective for relieving this type of pain. Allodynia was evaluated using Von Frey filaments as previously described. ^19 Briefly, rats were accustomed for 15 min on a metal mesh floor under an inverted plastic box (20 × 10 × 10 cm) in a quiet room dedicated to this behavioural test. After habituation, the plantar surface of the right and left hind legs was alternately touched (6‐8 seconds) with von Frey filaments of progressively wider diameter in order to find the threshold of pressure required to produce withdrawal. The mechanical threshold response was obtained by consigning the pressure in grams that would result in withdrawal of the paw in 50% of 10 trials. A normal rat responds to tactile pressures of 12‐15 g whereas neuropathic rats respond to pressures of 4‐6 g. ^24
In a first series of experiments, dose‐response curves to SNC‐80, SB235863, deltorphin II and TIPP were constructed following intrathecal (i.t.) injection of increasing doses until no increment in maximal anti‐allodynic response was observed. […] Each group of rats received only one ligand and a single dose per day. Saturation of the analgesic response on mechanical allodynia required assessing 5‐6 doses per ligand administered over a period of 5‐6 days, using 3‐4 animals/dose. Injections were made at mid‐lumbar level with a needle 23G × 1/2 under light anaesthesia using 4% isoflurane inhalation in a 1:1 mixture of oxygen and air. The animals were allowed to recover for 15 minutes before mechanical thresholds were determined. Threshold measures were repeated every 15 minutes until the analgesic response disappeared. Peak analgesic responses (30 minutes) or responses integrated over time (area under the curve: AUC) were consigned and plotted as a function of treatment dose. Curves were fitted with the four‐parameter logistic equation in GraphPad 7 to yield ED80 and ED50 values that were then used to treat rats for assessment of chronic tolerance. For each drug, the stock solution was prepared as follows: deltorphin II was dissolved in sterile artificial cerebrospinal fluid (CSF); TIPP and SB235863 stocks were dissolved in sterile water and SNC‐80 in DMSO. Each stock solution was diluted in CSF at required concentrations and injected i.t. in a final volume of 30 μL. Control animals were injected with 30 μL of CSF. At the end of behavioural experiments, rats were anaesthetized by isoflurane and killed by decapitation.

For data set [2] the test system is unchanged. Put plainly: Chronic (homologous) analgesic tolerance over six daily i.t. injections at ED80, with or without ECE2 inhibitor 6634449. The format is in vivo. The following applies: for Anti‐allodynic response over 6‐day treatment: six consecutive i.t. injections at ED80, 24‐hour intervals, daily AUC, seven rats/group. The method, then: as §1, §2
(§3) To evaluate homologous tolerance, each agonist was injected i.t. once daily for six consecutive days, at ED80 derived from dose‐response curves (deltorphin‐IIED80: 0.30 nmol/30 μL; TIPPED80: 0.40 nmol/30 μL; SB235863ED80: 1.7 nmol/30 μL and SNC‐80ED80: 0.55 nmol/30 μL). Immediately after drug administration, mechanical allodynia was measured every 15 minutes until the analgesic response disappeared. […] Prior to starting any pharmacological treatment, the presence of allodynia was confirmed. Treatments and measures were carried out randomly by two different experimenters to ensure blinding to treatment for the person assessing allodynia. In a series of experiments, an inhibitor of endothelin‐converting enzyme 2 (ECE2), 6634449, was administered by i.t injection (3 nmol/30 μL) 20 minutes prior to administration of DOPr ligands from 2 to 7 days. The vehicle (4% DMSO diluted in CSF sterile) was given as control. The dose of 6634449 used in this study was based on results previously published. ^25
(§4) Figure 1 Experimental design. One week after STZ administration, repeated treatments with DOPr agonists were started. Before starting chronic treatment with ED80 of deltorphin II, TIPP, SB235863 or SNC‐80, animals were tested to establish the baseline allodynia. Immediately after, they were injected with deltorphin II at a dose corresponding to ED50, which was repeated at the end of treatment. Allodynia measures were taken every 15 min after each injection until analgesic effects disappeared. Chronic tolerance was evaluated by comparing analgesic response to successive i.t. injections of each agonist between days 2 and 6. Difference in analgesic response to deltorphin II ED50 in days 1 and 8 allowed to establish tolerance induced by the different agonists to this common probe

Data set [3] shares this test system. Put plainly: Heterologous tolerance to a common probe (deltorphin II ED50) before and after 6‐day treatment, with or without 6634449. The format is in vivo. The following applies: for Heterologous tolerance (response to deltorphin II ED50) with 6634449 co‐administration: 6634449 or vehicle i.t. 20 min before each of six agonist injections at ED80, five rats/group; for Tolerance to common probe deltorphin II (ED50) after 6‐day treatment: probe i.t. one day before and one day after six i.t. injections at ED80, 7 rats/group. Here is the method:
as §1, §2, §3, §4

The next data set relates to DOPr. Set-up: method as in PMID 24174495. The following applies: cited from earlier work.
The conditions of data set [4]: peptidic ligands; cited from earlier work.
For data set [5], the system named is endothelin‐converting enzyme 2 (ECE2). The following applies: endosomal protease that functions at acidic pH; cited from earlier work. The text has this:
Indeed, deltorphin II is a naturally occurring opioid peptide ^32 and TIPP is an opioid peptide analogue. ^33 On the other hand, SNC‐80 ^34 and SB235863 ^35 are synthetic, non‐peptide ligands.

Where [6] appears, read: i.t., anti‐allodynic effect, STZ rats.

For the compound `C=CCN1C[C@H](C)N([C@H](c2ccc(C(=O)N(CC)CC)cc2)c2cccc(OC)c2)C[C@H]1C` [SNC‐80, (+)‐4‐[(αR)‐α‐((2S,5R)‐4‐allyl‐2,5‐dimethyl‐1‐piperazinyl)‐3‐methoxybenzyl]‐N,N‐diethylbenzamide], in data set [1], the “Analgesia 60 min after injection vs vehicle” value (from here on “Analgesia 60 min … vs vehicle”) was “no longer significantly different from vehicle”. Besides, in data set [1] (STZ rats), the “Area under the curves, pEC50 ± SEM (M)” value was found to be 4.95 ± 0.18 M and the “Peak analgesic response, pEC50 ± SEM (M)” value is reported as 5.15 ± 0.06 M. Also, in data set [1] (i.t., STZ rats), the “Area under the curves, Relative EMAX ± SEM” value (from here on “Area … Relative EMAX ± SEM”) stood at 87.9 ± 22.1 and the “Peak analgesic response, Relative EMAX ± SEM” value is 100 ± 7.8. In addition, the “ED80 derived from dose‐response curves” value in data set [1] (setting [6]) is listed as 0.55 nmol/30 μL. The “Anti‐allodynic response over 6‐day treatment” value in data set [2] is recorded as “gradually decreased”. Further, in data set [3], the “Heterologous tolerance (response to deltorphin II ED50) with 6634449 co‐administration” value (shortened to “Heterologous tolerance”) is reported as “remained unchanged” and the “Tolerance to common probe deltorphin II (ED50) after 6‐day treatment” value (“Tolerance to common probe deltorphin II” below) is “induced cross‐tolerance”. In the data set on DOPr, the “Internalization in HEK cells” value was “marked internalization”.
As for deltorphin II, in data set [1], the “Analgesia 60 min … vs vehicle” value is “no longer significantly different from vehicle”. Also, in data set [1] (STZ rats), the “Area under the curves, pEC50 ± SEM (M)” value was 5.09 ± 0.05 M and the “Peak analgesic response, pEC50 ± SEM (M)” value was determined as 5.22 ± 0.86 M. Further, in data set [1] (i.t., STZ rats), the “Area … Relative EMAX ± SEM” value was determined as 80.5 ± 8.0 and the “Peak analgesic response, Relative EMAX ± SEM” value is given as 91.0 ± 9.0. In data set [1] (setting [6]), the “ED50 (challenge dose)” value stood at 0.23 nmol/30 μL and the “ED80 derived from dose‐response curves” value is on record as 0.30 nmol/30 μL. Also, in data set [2] (6634449 3 nmol/30 μL (0.1 mmol/L) i.t. 20 min before each daily i.t. agonist injection at ED80, five rats/group), the “Analgesic t 1/2 (95% CI), rats pre‐treated with ECE2 inhibitor 6634449” value is given as “ill‐defined”. Besides, the “Tolerance / analgesia with 6634449 pre‐treatment compared with vehicle controls” value in data set [2] (6634449 0.1 mmol/L i.t. 20 min before each agonist injection at ED80, five rats/group) is on record as “significantly shorter”. Besides, the “Day by which analgesic effects were reduced in animals exposed to 6634449” value in data set [2] (6634449 i.t. 20 min before each daily agonist injection at ED80) is 4 days. The “Anti‐allodynic response over 6‐day treatment” value in data set [2] is on record as “maintained its analgesic response”. Moreover, the “Analgesic t 1/2 (95% CI), rats pre‐treated with vehicle” value in data set [2] (vehicle i.t. 20 min before each daily i.t. agonist injection at ED80, five rats/group) was “no measurable decay t 1/2”. Further, in data set [3], the “Heterologous tolerance” value was “reduced analgesic effect” and the “Tolerance to common probe deltorphin II” value is given as “without effect”. The “Internalization in HEK cells” value in the data set on DOPr is “marked internalization”. For the same compound, the “Blood‐brain barrier penetration” value in data set [4] is on record as “poor blood‐brain barrier penetration”. The “Substrate of ECE2” value in data set [5] is given as “one of the ECE2 substrates”.
Turning to `CCC(C)COC(=O)c1[nH]c2c(c1C)CC1C3Cc4ccc(OC)c5c4C1(CCN3C)C2O5.Cl` (stereo not drawn) [SB235863, [8R‐(4bS*,8aα,8aβ,12bβ)]7,10‐dimethyl‐1‐methoxy‐11‐(2‐ethylpropyl)oxycarbonyl 5,6,7,8,12,12b‐hexahydro‐(9H)‐4,8‐methanobenzofuro[3,2‐e]pyrrolo[2,3‐g]isoquinoline hydrochloride], the “Analgesia 60 min … vs vehicle” value in data set [1] was “still present”. In data set [1] (STZ rats), the “Area under the curves, pEC50 ± SEM (M)” value came out at 4.44 ± 0.03 M and the “Peak analgesic response, pEC50 ± SEM (M)” value is recorded as 4.50 ± 0.05 M. Besides, in data set [1] (i.t., STZ rats), the “Area … Relative EMAX ± SEM” value is listed as 100.6 ± 5.1 and the “Peak analgesic response, Relative EMAX ± SEM” value worked out at 84.4 ± 8.8. In addition, the “ED80 derived from dose‐response curves” value in data set [1] (setting [6]) is recorded as 1.7 nmol/30 μL. Moreover, the “Anti‐allodynic response over 6‐day treatment” value in data set [2] is given as “practically abolished”. Moreover, in data set [3], the “Heterologous tolerance” value is reported as “remained unchanged” and the “Tolerance to common probe deltorphin II” value is “induced cross‐tolerance”. Moreover, the “Internalization in HEK cells” value in the data set on DOPr is reported as “minimal internalization”.
